According to patent US20230099031A1, “BIFUNCTIONAL AGENTS FOR PROTEIN RECRUITMENT AND/OR DEGRADATION” (Orionis Biosciences, Inc., priority 2019, published 2023):
pEC50, pIC50: −log10 of the molar value.

Assays:
Assay type in all cases: cell-based
[1] = biological target: T1, CRBN (Homo sapiens, UniProt Q96SW2); assay: Competition Assay: MAPPIT-like, competition with trimethoprim-lenalidomide hybrid ligand for binding to CRBN in HEK293T cells; conditions: protocol and reagents of Example 1; read-out: IC50 Competition
T1 construct: expressed in transfected cells; host or cells: HEK293T

[2] = biological target: T2, ASS1 (Homo sapiens, UniProt P00966+Q96SW2); assay: Recruitment Assay (MAPPIT-like): ASS1 recruitment, pSEL-CRBN+pMG1-ASS1; conditions: recruitment of ASS1, protocol of Example 2; for pEC50: read-out: EC50_ASS1
T2 construct: Full size proteins are fused for each of the target proteins tested; expressed in transfected cells; host or cells: HEK293T
Experimental: (§1) In this experimental set-up, cells are transfected with a construct encoding a CRBN-fusion protein and another one encoding a substrate-fusion protein. Test compound activity is assessed with increasing concentrations of test compounds (dose-response studies) to monitor the ability to promote CRBN-ligand-induced protein interaction.
(§2) Full size proteins are fused for each of the target proteins tested, except in the case of IKZF1 where isoform 7 is used, and BRD4, where isoform 3 is applied. For the study, the following construct combinations are used: IKZF1 recruitment: pSEL-CRBN+pMG1-IKZF1(isoform 7); ASS1 recruitment: pSEL-CRBN+pMG1-ASS1; SALL4 recruitment: pSEL-SALL4+pMG1-CRBN; DHFR recruitment: pCLG-DHFR+pMG1-CRBN; ESR1 recruitment: pSEL-CRBN+pMG1-ESR1; BRD4 recruitment: pSEL-CRBN+pMG1-BRD4(isoform 3). Cells are treated with erythropoietin (Epo; where pSEL-type receptor fusions constructs are used) or leptin (in the case pCLG-type receptor fusion constructs are applied) without or with the indicated dose of test compound at 24 hours after transfection. Luciferase activity is measured 24 hours after test compound treatment using the Luciferase Assay System kit (PROMEGA, Madison, Wis.) with an Ensight plate reader (PERKIN ELMER LIFE SCIENCES, Waltham, Mass.). Data points depict fold induction of the average luciferase activity of triplicate samples from Epo or leptin+test compound treated cells versus Epo or leptin only treated cells. Error bars represent standard deviations. Curves are fit using 4-parameter nonlinear regression in […] PRISM software.

[3] = biological target: T3, SALL4 (Homo sapiens, UniProt Q96SW2+Q9UJQ4); assay: Recruitment Assay (MAPPIT-like): SALL4 recruitment, pSEL-SALL4+pMG1-CRBN; conditions: recruitment of SALL4, protocol of Example 2; read-out: EC50_SALL4
T3 construct: Full size proteins are fused for each of the target proteins tested; expressed in transfected cells; host or cells: HEK293T
Experimental: as §1, §2

SMILES | pIC50 [1] | EC50_ASS1 (M) [2] | pEC50 [3] | pEC50 [2]
CCOC(=O)Nc1cccc2c1CN(C1CCC(=O)NC1=O)C2=O (stereo not shown) [Compound C22622, ethyl N-[2-(2,6-dioxo-3-piperidyl)-1-oxo-isoindolin-4-yl]carbamate] | 6.65 | >> | 6.92 | –
O=C1CCC(N2Cc3cc(NCCNC(=O)Nc4ccccc4)ccc3C2=O)C(=O)N1 (stereo not shown) [Compound C35751, 1-[2-[[2-(2,6-dioxo-3-piperidyl)-1-oxo-isoindolin-5-yl]amino]ethyl]-3-phenyl-urea] | 6.31 | – | 6.63 | 5.84
O=C(O)CNc1ccc2c(c1)CN(C1CCC(=O)NC1=O)C2=O (stereo not shown) [Compound C47995, 2-[[2-(2,6-dioxo-3-piperidyl)-1-oxo-isoindolin-5-yl]amino]acetic acid] | 5.43 | >> | 6.29 | –
CC(=O)Nc1ccc2c(c1)CN(C1CCC(=O)NC1=O)C2=O (stereo not shown) [Compound C29361, N-[2-(2,6-dioxo-3-piperidyl)-1-oxo-isoindolin-5-yl]acetamide] | 5.84 | >> | 6.73 | –
O=C1CCC(N2C(=O)c3ccccc3C2O)C(=O)N1 (stereo not shown) [Compound C89940, 3-(1-hydroxy-3-oxo-isoindolin-2-yl)piperidine-2,6-dione] | 5.48 | >> | 6.36 | –
CN(C)C1c2ccccc2C(=O)N1C1CCC(=O)NC1=O (stereo not shown) [Compound C10981, 3-[1-(dimethylamino)-3-oxo-isoindolin-2-yl]piperidine-2,6-dione] | 5.11 | >> | 5.84 | –
Cc1ccc(NC(=O)NCc2cc(C)c3c(c2)CN(C2CCC(=O)NC2=O)C3=O)cc1Cl (stereo not shown) [Compound C58181, 1-(3-chloro-4-methyl-phenyl)-3-[[2-(2,6-dioxo-3-piperidyl)-7-methyl-1-oxo-isoindolin-5-yl]methyl]urea] | 7.54 | >> | – | –
NC(=O)c1cccc(NC(=O)CNc2ccc3c(c2)CN(C2CCC(=O)NC2=O)C3=O)c1 (stereo not shown) [Compound C35811, 3-[[2-[[2-(2,6-dioxo-3-piperidyl)-1-oxo-isoindolin-5-yl]amino]acetyl]amino]benzamide] | 5.61 | >> | 6.19 | –
N#Cc1cccc2c1CN(C1CCC(=O)NC1=O)C2=O (stereo not shown) [Compound C48003, 2-(2,6-dioxo-3-piperidyl)-1-oxo-isoindoline-4-carbonitrile] | 6.21 | >> | 6.24 | –
Cc1ccc2nnn(C3CCC(=O)NC3=O)c(=O)c2c1 (stereo not shown) [Compound C16463, 3-(6-methyl-4-oxo-1,2,3-benzotriazin-3-yl)piperidine-2,6-dione] | 5.57 | – | 6.11 | –
CC(=O)NCCNc1ccc2c(c1)CN(C1CCC(=O)NC1=O)C2=O (stereo not shown) [Compound C35745, N-[2-[[2-(2,6-dioxo-3-piperidyl)-1-oxo-isoindolin-5-yl]amino]ethyl]acetamide] | 4.95 | – | 5.58 | –
Cc1cccc2c(=O)n(C3CCC(=O)NC3=O)nnc12 (stereo not shown) [Compound C35830, 3-(8-methyl-4-oxo-1,2,3-benzotriazin-3-yl)piperidine-2,6-dione] | 5.46 | – | 6.23 | 5.25
O=C1CCC(N2Cc3ccc(-c4ccccc4)cc3C2=O)C(=O)N1 (stereo not shown) [Compound C48018, 3-(1-oxo-6-phenyl-isoindolin-2-yl)piperidine-2,6-dione] | 6.64 | – | 6.40 | –
O=C1CCC(n2nnc3ccccc3c2=O)C(=O)N1 (stereo not shown) [Compound C21223, 3-(4-oxo-1,2,3-benzotriazin-3-yl)piperidine-2,6-dione] | 5.64 | >> | 6.29 | –
N#Cc1ccc(Nc2ccc3c(c2)CN(C2CCC(=O)NC2=O)C3=O)nn1 (stereo not shown) [Compound C80378, 6-[[2-(2,6-dioxo-3-piperidyl)-1-oxo-isoindolin-5-yl]amino]pyridazine-3-carbonitrile] | 5.66 | – | 6.41 | 5.03
O=C1CCC(N2Cc3ncccc3C2=O)C(=O)N1 (stereo not shown) [Compound C47959, 3-(5-oxo-7H-pyrrolo[3,4-b]pyridin-6-yl)piperidine-2,6-dione] | 5.59 | >> | 6.36 | –
CC(=O)NC1c2ccccc2C(=O)N1C1CCC(=O)NC1=O (stereo not shown) [Compound C33779, N-[2-(2,6-dioxo-3-piperidyl)-3-oxo-isoindolin-1-yl]acetamide] | 4.31 | – | 5.52 | –

SMILES | pIC50 [1] | EC50_ASS1 (M) [2] | pEC50 [3] | pEC50 [2]
Cc1ccc2c(=O)n(C3CCC(=O)NC3=O)nnc2c1 (stereo not shown) [Compound C17800, 3-(7-methyl-4-oxo-1,2,3-benzotriazin-3-yl)piperidine-2,6-dione] | 4.66 | – | 6.04 | –
O=C1CCC(N2C(=O)C3=C(C2=O)c2ccccc2CC3)C(=O)N1 (stereo not shown) [Compound C64340, 2-(2,6-dioxo-3-piperidyl)-4,5-dihydrobenzo[e]isoindole-1,3-dione] | 2.60 | – | 5.83 | –
O=C(O)CNc1cccc2c1C(=O)N(C1CCC(=O)NC1=O)C2 (stereo not shown) [Compound C47998, 2-[[2-(2,6-dioxo-3-piperidyl)-3-oxo-isoindolin-4-yl]amino]acetic acid] | 5.18 | – | 5.66 | –
CCOC(=O)NCCNc1ccc2c(c1)CN(C1CCC(=O)NC1=O)C2=O (stereo not shown) [Compound C35754, ethyl N-[2-[[2-(2,6-dioxo-3-piperidyl)-1-oxo-isoindolin-5-yl]amino]ethyl]carbamate] | 6.13 | >> | 6.56 | –
O=C1CCC(N2Cc3cc(Nc4ncnc5ccccc45)ccc3C2=O)C(=O)N1 (stereo not shown) [Compound C80373, 3-[1-oxo-5-(quinazolin-4-ylamino)isoindolin-2-yl]piperidine-2,6-dione] | 6.05 | >> | – | –
O=C1CCC(N2Cc3cc4c(cc3C2=O)OCO4)C(=O)N1 (stereo not shown) [Compound C68126, 3-(7-oxo-5H-[1,3]dioxolo[4,5-f]isoindol-6-yl)piperidine-2,6-dione] | 6.25 | >> | 6.50 | –
Cc1ccc2c(c1)C(=O)N(C1CCC(=O)NC1=O)C2 (stereo not shown) [Compound C28620, 3-(6-methyl-1-oxo-isoindolin-2-yl)piperidine-2,6-dione] | 6.75 | – | 6.57 | –
O=C1CCC(N2C(=O)c3ccccc3C2=O)C(=O)N1 (stereo not shown) [THL, Thalidomide, reference compound] | – | >> | – | –
Cc1nc2ccc(C#N)c(N)c2c(=O)n1C1CCC(=O)NC1=O (stereo not shown) [Compound C10001, 5-amino-3-(2,6-dioxo-3-piperidyl)-2-methyl-4-oxo-quinazoline-6-carbonitrile] | – | >> | 5.90 | –
O=C1CCC(N2Cc3ccc(O)cc3C2=O)C(=O)N1 (stereo not shown) [Compound C28928, 3-(6-hydroxy-1-oxo-isoindolin-2-yl)piperidine-2,6-dione] | – | >> | – | –
O=C1CCC(N2Cc3ccc(Nc4ncc5c(n4)COC5)cc3C2=O)C(=O)N1 (stereo not shown) [Compound C80391, 3-[6-(5,7-dihydrofuro[3,4-d]pyrimidin-2-ylamino)-1-oxo-isoindolin-2-yl]piperidine-2,6-dione] | 6.79 | – | 6.82 | –
O=C1CCC(N2Cc3cc(Nc4ncccn4)ccc3C2=O)C(=O)N1 (stereo not shown) [Compound C80369, 3-[1-oxo-5-(pyrimidin-2-ylamino)isoindolin-2-yl]piperidine-2,6-dione] | 7.38 | – | – | 5.89
O=C1CCC(N2Cc3cccc(F)c3C2=O)C(=O)N1 (stereo not shown) [Compound C23066, 3-(7-fluoro-1-oxo-isoindolin-2-yl)piperidine-2,6-dione] | 6.60 | >> | 7.05 | –
CC(C)OC1c2ccccc2C(=O)N1C1CCC(=O)NC1=O (stereo not shown) [3-(1-isopropoxy-3-oxo-isoindolin-2-yl)piperidine-2,6-dione] | 4.64 | – | 5.57 | –
O=C1CCC(N2Cc3ccccc3C2)C(=O)N1 (stereo not shown) [Compound C87699, 3-isoindolin-2-ylpiperidine-2,6-dione] | 4.71 | – | 5.32 | –
CN(C)CC(=O)Nc1cccc2c1CN(C1CCC(=O)NC1=O)C2=O (stereo not shown) [Compound C22586, 2-(dimethylamino)-N-[2-(2,6-dioxo-3-piperidyl)-1-oxo-isoindolin-4-yl]acetamide] | 5.89 | – | 5.94 | –
COCC(=O)Nc1cccc2c1CN(C1CCC(=O)NC1=O)C2=O (stereo not shown) [Compound C22564, N-[2-(2,6-dioxo-3-piperidyl)-1-oxo-isoindolin-4-yl]-2-methoxy-acetamide] | 5.78 | >> | 6.06 | –
